Measurements taken from patent US20080242688A1, “Method 741” (ASTRAZENECA AB, priority 2007, published 2008).
Where “and” joins values, the source holds several entries; their conditions need not be identical. Equal values may be shown once.

Columns and labels:
[1] = Allometric scaling / predicted human pharmacokinetics
[2] = system: guinea pigs; assay: Cardiac repolarisation in the anesthetised guinea pig; type: in vivo
Procedure: Effects of AZD0328 on ventricular repolarisation and intracardiac conduction were investigated in 6 anesthetised and ventilated guinea pigs (Table 3). For the electrophysiological characterisation, monophasic action potentia MAP duration at 90% repolarisation (MAPD90), ventricular conduction velocity (MAP rise time), and atrioventricular (AV) conduction time were recorded during cardiac pacing. AZD0328 had dose-dependent effects on the electrophysiological activities in the guinea pig heart. At the highest dose, resulting in a total plasma concentration of 8.5 μM, MAPD90 and AV conduction time were prolonged by 20% and 13%, respectively. It is concluded that AZD0328 delayed ventricular repolarisation in the anesthetised guinea pig by 10% at a total plasma concentration of 2.4 μM.

[3] = Single dose PK/TK, rat; type: in vivo; settings: for AUC / Cmax / Tmax: in vivo
Excerpt: (§1) This section provides a summary of the pharmacokinetic and metabolism properties of AZD0328 derived from in vivo studies. […] The derived PK/TK parameters from these studies are presented in Table 4 for single dose studies (DMR4, 0619LR, 20030191PCR, DMO16, DMB10, DMW12, 50190, 0190DD and 03.330/1), and are presented in Table 5 multiple dose PK/TK studies (DMR4, 0612AR, DMB15, 50190, 0190DD and 0295AD).

[4] = system: rats; assay: Nicotine drug discrimination; type: in vivo, rat
[5] = molecular target: α7 receptor (Rattus norvegicus, UniProt Q05941); assay: Pre-frontal cortex slice GABA sIPSC frequency; type: cell-based; settings: rat PFC slice
Chain of α7 receptor (Q05941 23-502): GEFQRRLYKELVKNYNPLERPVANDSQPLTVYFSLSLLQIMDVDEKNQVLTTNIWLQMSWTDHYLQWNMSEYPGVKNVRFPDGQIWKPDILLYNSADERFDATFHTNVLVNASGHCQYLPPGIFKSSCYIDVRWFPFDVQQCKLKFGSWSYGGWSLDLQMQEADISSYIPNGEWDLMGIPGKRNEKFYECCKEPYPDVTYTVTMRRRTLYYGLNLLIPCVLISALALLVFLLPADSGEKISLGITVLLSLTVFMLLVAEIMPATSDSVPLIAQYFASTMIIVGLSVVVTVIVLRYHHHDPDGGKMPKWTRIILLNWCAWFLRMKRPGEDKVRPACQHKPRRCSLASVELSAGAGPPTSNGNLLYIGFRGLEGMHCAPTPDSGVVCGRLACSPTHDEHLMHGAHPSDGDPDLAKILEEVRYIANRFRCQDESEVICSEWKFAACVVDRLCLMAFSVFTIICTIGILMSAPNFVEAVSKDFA
Excerpt: In membranes prepared either from cultured, human recombinant α7 receptor-expressing, human embryonic kidney cells α7-HEK) or from rat brain hippocampus, AZD0328 competed with binding of an iodinated form of the high-affinity, selective α7 receptor antagonist snake toxin, [^125I]-α-bungarotoxin (BTX) (Table 1). In Xenopus oocytes injected with human, recombinant α7 receptor mRNA, AZD0328 activates whole cell currents (Table 2). […] In acutely dissociated rat hippocampal interneurons, AZD0328 elicits rapidly activated, desensitizing whole-cell current (Table 1), consistent with the known properties of rat neuronal α7 receptors. […] AZD0328 modulates synaptic function, consistent with the well-known role of α7 receptors as heteroreceptor modulators of glutamatergic and GABAergic synaptic function.

[6] = Respiratory effects, whole body plethysmography; type: in vivo; settings: plasma; rat, oral; read-out: NOAEL on ventilatory function, total Cmax
Procedure: Effects of single oral doses of AZD0328 on mean, systolic and diastolic arterial blood pressures, heart rate, body temperature, locomotor activity and respiratory parameters were evaluated in rats by combining whole body plethysmography with telemetry (Table 3). […] The degree of hypertension, however, was similar at the 3 highest doses, which partly can be explained by the high individual variation in plasma exposure at each dose level. The effect on heart rate was, on the other hand, dose-related.
Effects of AZD0328 on respiratory function were evaluated in the combined cardiovascular/respiratory study in rats (Table 3). Respiratory rate, tidal volume, inspiratory and expiratory times, and peak inspiratory and expiratory flows were measured […].

[7] = Multiple dose PK/TK, rat; type: in vivo
Excerpt: as §1

[8] = allometric scaling of in vivo data from rat and monkey
[9] = highest dose, total plasma concentration 8.5 μM
[10] = both sexes, rat 1M+1F, DMR4, single oral 2.16 mg/kg (10 μmol/kg)
[11] = female, rat 2F, 0619LR, single oral 149 mg/kg (690 μmol/kg)
[12] = male, rat 3M, 0619LR, single oral 201 mg/kg (930 μmol/kg)
[13] = male, rat 4M, 20030191PCR, single oral 1.08 mg/kg (5 μmol/kg)
[14] = male, rat 4M, 20030191PCR, single oral 32.4 mg/kg (150 μmol/kg)
[15] = male, rat 4M, 20030191PCR, single oral 54.1 mg/kg (250 μmol/kg)
[16] = male, rat 4M, 20030191PCR, single oral 86.5 mg/kg (400 μmol/kg)
[17] = both sexes, rat, in vivo, po, 2.16 mg/kg, rat 1F+1M, DMR4, 2.16 mg/kg (10 μmol/kg), day 1
[18] = both sexes, rat, in vivo, po, 2.16 mg/kg, rat 1F+1M, DMR4, 2.16 mg/kg (10 μmol/kg), day 7
[19] = female, rat, in vivo, po, 2.16 mg/kg, rat 4F, 0612AR, 2.16 mg/kg (10 μmol/kg), day 1
[20] = female, rat, in vivo, po, 2.16 mg/kg, rat 4F, 0612AR, 2.16 mg/kg (10 μmol/kg), day 30
[21] = female, rat, in vivo, po, 15.1 mg/kg, rat 4F, 0612AR, 15.1 mg/kg (70 μmol/kg), day 1
[22] = female, rat, in vivo, po, 15.1 mg/kg, rat 4F, 0612AR, 15.1 mg/kg (70 μmol/kg), day 30
[23] = female, rat, in vivo, po, 64.9 mg/kg, rat 4F, 0612AR, 64.9 mg/kg (300 μmol/kg), day 1
[24] = female, rat, in vivo, po, 64.9 mg/kg, rat 4F, 0612AR, 64.9 mg/kg (300 μmol/kg), day 30
[25] = male, rat, in vivo, po, 2.16 mg/kg, rat 4M, 062AR, 2.16 mg/kg (10 μmol/kg), day 30
[26] = male, rat, in vivo, po, 2.16 mg/kg, rat 4M, 0612AR, 2.16 mg/kg (10 μmol/kg), day 1
[27] = male, rat, in vivo, po, 15.1 mg/kg, rat 4M, 0612AR, 15.1 mg/kg (70 μmol/kg), day 1
[28] = male, rat, in vivo, po, 15.1 mg/kg, rat 4M, 0612AR, 15.1 mg/kg (70 μmol/kg), day 30
[29] = male, rat, in vivo, po, 64.9 mg/kg, rat 4M, 0612AR, 64.9 mg/kg (300 μmol/kg), day 1
[30] = male, rat, in vivo, po, 64.9 mg/kg, rat 4M, 0612AR, 64.9 mg/kg (300 μmol/kg), day 30

With c1cnc2c(c1)C[C@@]1(CN3CCC1CC3)O2 [AZD0328, (R)-Spiro[1-azabicyclo[2.2.2]octane-3,2′(3′H)-furo[2,3-b]pyridine]] the “predicted human Vdss” value [1, 8] was 2.7 L/kg, the “predicted human systemic clearance” value [1, 8] was 5.9 mL/min/kg and the human predicted half-life ([1]; one-compartment pharmacokinetic model) was 5.3 h. The total plasma concentration ([2]; highest dose, iv cumulative bolus) was 8.5 µM, the “prolongation of AV conduction time” value [2, 9] was 13% and the “prolongation of MAPD90” value [2, 9] was 20%. The “NOAEL, guinea pig MAP assay” value ([2]; in vivo) was 1 µM, the AUC [3, 10] was 699 ng·h/mL to 861 ng·h/mL and 3.23 µM·h to 3.98 µM·h and the Cmax [3, 10] was 251 ng/mL to 344 ng/mL and 1.16 µM to 1.59 µM. The Tmax [3, 10] was 0.5 to 1 h, the AUC [3, 11] was 76600 ng·h/mL and 354 µM·h and the Cmax [3, 11] was 4740 ng/mL to 11600 ng/mL and 21.9 µM. For the same compound, the AUC [3, 12] was 49800 ng·h/mL and 230 µM·h, the Cmax [3, 12] was 15.9 µM and 3440 ng/mL and the AUC [3, 13] was 441 ng·h/mL and 2.04 µM·h. For the same compound, the Cmax [3, 13] was 99.9 ng/mL and 462 nM, the Tmax [3, 13] was 1 h and the AUC [3, 14] was 26600 ng·h/mL and 123 µM·h. The Cmax [3, 14] was 2570 ng/mL and 11.9 µM, the Tmax [3, 14] was 1 h and the AUC [3, 15] was 37900 ng·h/mL and 175 µM·h. For the same compound, the Cmax [3, 15] was 4500 ng/mL and 20.8 µM, the Tmax [3, 15] was 1 h and the AUC [3, 16] was 90000 ng·h/mL and 416 µM·h. For the same compound, the Cmax [3, 16] was 6750 ng/mL and 31.2 µM, the Tmax [3, 16] was 1 h and the F ([3]; rat 1M+1F, DMR4, oral 2.16 mg/kg vs iv 1.08 mg/kg) was 78-84%. For the same compound, the plasma concentrations ([3]; rat, 1 mg per kg (minimum effective dose in fimbria fornix model)) was 290 to 1400 nM, the estimated plasma concentrations ([3]; rats, extended to mice, 0.001-0.1 mg per kg) was 0.29 to 100 nM and the “dose up to which nicotine-like stimulus properties were lacking” value ([4]; rat, sc) was “properties at doses up to 5.4 mg/kg”. The nicotine-like stimulus effects ([4]; rats trained to discriminate 0.3 mg/kg nicotine, sc) was “lack of nicotine-like stimulus properties”, the rate of responding ([4]; rats, doses up to 30 mg/kg sc) was “severely depressed the rate of responding” and the EC50 [5] was 700 nM. The Emax ([5]; read-out: Maximum response, GABA sIPSC frequency) was 330%, the Cmax [6] was 31200 nM and the AUC [7, 17] was 699 ng·h/mL to 861 ng·h/mL and 3.23 µM·h to 3.98 µM·h. For the same compound, the Cmax [7, 17] was 251 ng/mL to 344 ng/mL and 1.16 µM to 1.59 µM, the Tmax [7, 17] was 0.5 to 1 h and the AUC [7, 18] was 2.77 µM·h to 3.96 µM·h and 599 ng·h/mL to 857 ng·h/mL. It also gave a Cmax [7, 18] of 212 to 324 ng/mL, a Cmax at 7 day [7, 18] of 981 to 1500 nM and a Tmax [7, 18] of 0.5 h. For the same compound, the AUC [7, 19] was 916 ng·h/mL and 7.25 µM·h, the Cmax at 1 day [7, 19] was 236 ng/mL and 1.87 µM and the Tmax at 1 day [7, 19] was 1 h. For the same compound, the AUC [7, 20] was 858 ng·h/mL and 6.79 µM·h, the Cmax at 30 day [7, 20] was 220 ng/mL and 1.74 µM and the Tmax at 30 day [7, 20] was 1 h. The AUC [7, 21] was 8120 ng·h/mL and 64.3 µM·h, the Cmax at 1 day [7, 21] was 984 ng/mL and 7.79 µM and the Tmax at 1 day [7, 21] was 1 h. For the same compound, the AUC [7, 22] was 9600 ng·h/mL and 76 µM·h, the Cmax at 30 day [7, 22] was 1420 ng/mL and 11.2 µM and the Tmax at 30 day [7, 22] was 1 h. The AUC [7, 23] was 40400 ng·h/mL and 320 µM·h, the Cmax [7, 23] was 2480 ng/mL and 19.6 µM and the Tmax [7, 23] was 1 to 3 h. For the same compound, the AUC [7, 24] was 42100 ng·h/mL and 333 µM·h, the Cmax [7, 24] was 2930 ng/mL and 23.2 µM and the Tmax [7, 24] was 1 h. The AUC [7, 25] was 412 ng·h/mL and 3.26 µM·h, the Cmax at 30 day [7, 25] was 154 ng/mL and 1.22 µM and the Tmax at 30 day [7, 25] was 1 h. The AUC [7, 26] was 528 ng·h/mL and 4.18 µM·h, the Cmax at 1 day [7, 26] was 189 ng/mL and 1.5 µM and the Tmax at 1 day [7, 26] was 1 h. For the same compound, the AUC [7, 27] was 4230 ng·h/mL and 33.5 µM·h, the Cmax at 1 day [7, 27] was 769 ng/mL and 6.09 µM and the Tmax at 1 day [7, 27] was 1 to 3 h. For the same compound, the AUC [7, 28] was 5630 ng·h/mL and 44.6 µM·h, the Cmax at 30 day [7, 28] was 1160 ng/mL and 9.21 µM and the Tmax at 30 day [7, 28] was 1 h. For the same compound, the AUC [7, 29] was 23900 ng·h/mL and 189 µM·h, the Cmax [7, 29] was 1670 ng/mL and 13.2 µM and the Tmax [7, 29] was 1 to 6 h. The AUC [7, 30] was 29300 ng·h/mL and 232 µM·h, the Cmax [7, 30] was 2780 ng/mL and 22 µM and the Tmax [7, 30] was 1 h. For the same compound, the AUC/dose ([7]; rat 1F+1M, DMR4, 2.16 mg/kg (10 μmol/kg), day 1) was 0.323-0.398, the AUC/dose ([7]; rat 1F+1M, DMR4, 2.16 mg/kg (10 μmol/kg), day 7) was 0.277-0.396 and the AUC/dose ([7]; rat 4F, 0612AR, 2.16 mg/kg (10 μmol/kg), day 1) was 0.725 ± 0.068. For the same compound, the AUC/dose ([7]; rat 4F, 0612AR, 2.16 mg/kg (10 μmol/kg), day 30) was 0.679 ± 0.134, the AUC/dose ([7]; rat 4F, 0612AR, 15.1 mg/kg (70 μmol/kg), day 1) was 0.919 ± 0.071 and the AUC/dose ([7]; rat 4F, 0612AR, 15.1 mg/kg (70 μmol/kg), day 30) was 1.09 ± 0.13. It also gave an AUC/dose ([7]; rat 4F, 0612AR, 64.9 mg/kg (300 μmol/kg), day 1) of 1.07 ± 0.10, an AUC/dose ([7]; rat 4F, 0612AR, 64.9 mg/kg (300 μmol/kg), day 30) of 1.11 ± 0.14 and an AUC/dose ([7]; rat 4M, 062AR, 2.16 mg/kg (10 μmol/kg), day 30) of 0.326 ± 0.084. For the same compound, the AUC/dose ([7]; rat 4M, 0612AR, 2.16 mg/kg (10 μmol/kg), day 1) was 0.418 ± 0.062, the AUC/dose ([7]; rat 4M, 0612AR, 15.1 mg/kg (70 μmol/kg), day 1) was 0.479 ± 0.037 and the AUC/dose ([7]; rat 4M, 0612AR, 15.1 mg/kg (70 μmol/kg), day 30) was 0.637 ± 0.043. For the same compound, the AUC/dose ([7]; rat 4M, 0612AR, 64.9 mg/kg (300 μmol/kg), day 1) was 0.630 ± 0.083 and the AUC/dose ([7]; rat 4M, 0612AR, 64.9 mg/kg (300 μmol/kg), day 30) was 0.773 ± 0.057.
